Test results taken from patent US20120121679A1, “VIRICIDAL AND MICROBICIDAL COMPOSITIONS AND USES THEREOF” (University of Georgia Research Foundation, Inc., priority 2009, published 2012).

Experiments:
[1] = test system: MNV-1; details: 1,000 ppm, cited from earlier work
[2] = test system: aerobic plate count; experiment: Produce wash in a 4-L tank: aerobic plate counts (APC); details: time not given
[3] = test system: S. typhimurium; experiment: Produce wash in a 4-L tank: S. typhimurium counts on apples, celery, onions, cantaloupes
[4] = test system: yeasts and molds; experiment: Produce wash in a 4-L tank: yeast and mold counts; details: time not given

Compound | reduction in MNV-1 infectivity ([1]; food residuals present on the surfaces) | reduction of viable MNV-1 ([1]; viruses dried on stainless steel surfaces without food residuals) | reduction of APC on onions [2] [log CFU/onion] | average reduction of S. typhimurium on cantaloupes ([3]; 2 min (Example 42)) [log CFU per cantaloupe] | reduction of S. typhimurium on onions ([3]; time not given) [log CFU/onion] | average S. typhimurium count on cantaloupes ([3]; treatment time 2 min (Example 42)) [log CFU per cantaloupe] | reduction of yeast and mold counts on onions [4] [log CFU/onion]
OCl [sodium hypochlorite solution, sodium hypochlorite] | minimal reductions in MNV-1 infectivity | > 4 log Most Probable Number (MPN)/ml |  |  |  |  | 
acidified sodium chlorite [50 ppm acidified sodium chlorite] |  |  | < 0.5 | 0.19 | < 0.5 | 3.43 | < 0.5
